Experimental data taken from patent US8084016B2, “Measurement of biosynthesis and breakdown rates of biological molecules that are inaccessible or not easily accessible to direct sampling, non-invasively, by label incorporation into metabolic derivatives and catabolitic products” (The Regents of the University of California, priority 2002, dated 2011).

What was measured:
[1] = Toxicity observation during maintained body water enrichment with ^2H2O; assay type: in vivo; conditions: levels maintained for weeks or months; >100 human subjects; rapid changes in body water enrichment prevented
From the text: Relatively high body water enrichments of ^2H2O (e.g., 1-10% of the total body water is labeled) may be achieved using the techniques of the invention. This water enrichment is relatively constant and stable as these levels are maintained for weeks or months in humans and in experimental animals without any evidence of toxicity (FIGS. 3-5). This finding in a large number of human subjects (>100 people) is contrary to previous concerns about vestibular toxicities at high doses of ^2H2O. Applicants have discovered that as long as rapid changes in body water enrichment are prevented (e.g., by initial administration in small, divided doses), high body water enrichments of ^2H2O can be maintained with no toxicities. For example, the low expense of commercially available ^2H2O allows long-term maintenance of enrichments in the 1-5% range at relatively low expense (e.g., calculations reveal a lower cost for 2 months labeling at 2% ^2H2O enrichment, and thus 7-8% enrichment in the alanine precursor pool (FIGS. 6A-B), than for 12 hours labeling of ^2H-leucine at 10% free leucine enrichment, and thus 7-8% enrichment in leucine precursor pool for that period).

[2] = Body water ^2H2O enrichment during oral ^2H2O intake; assay type: in vivo, human
[3] = system: muscle myosin; assay: Incorporation of ^2H from ^2H2O into urinary 3-methyl-histidine (muscle myosin biosynthesis); assay type: in vivo; conditions: human subjects, intake of ^2H2O for 4-8 weeks
From the text: An individual undergoing a physical training program or medical therapeutic regimen intended to increase muscle mass by increasing muscle myosin biosynthesis (e.g., an athlete; an elderly person receiving physical therapy after a stroke; a patient with cachexia related to cancer or AIDS who is receiving nutritional or anabolic agent therapy) is given a labeled precursor that is incorporated into the body's proteins during biosynthesis. […] […] […] Total urinary amino acids are isolated with an SPE column. The amino acids are derivatized for gas chromatographic/mass spectrometric analysis. […] The derivatized amino acids are injected into a gas chromatograph/mass spectrometer (e.g., HP 5973 instrument), using, e.g., a DB-225 column. The mass spectrum of the 3-methyl histidine peak is collected while monitoring mass isotopomers at m/z 267 and 268 (parent and M+1 ions, respectively). Relative abundances of the above mass isotopomers are quantified in samples and compared to unlabeled standards ([…] 267+268]=0.1200 in samples and 0.0960 in standards). The proportion of labeled:unlabeled molecules present in the sample is calculated for 3-methylhistidine using MIDA.

| Structure (SMILES) | toxicity at high body water enrichments of ^2H2O [1] | stability of ^2H2O enrichment in body water (precursor pool) ([2]; human subjects drank 50-100 ml ^2H2O daily for 10-12 weeks (FIG. 4)) | ^2H2O (%): body water enrichment ([2]; human subjects, intake of ^2H2O for 4-8 weeks) [%] | k: replacement rate constant of 3-methyl-histidine [3] [day⁻¹] |
| --- | --- | --- | --- | --- |
| [2H]O[2H] [^2H2O] | no toxicities | stable over a period of weeks | 1.8 | – |
| Cn1cncc1C[C@H](N)C(=O)O [3-methyl-histidine] | – | – | – | 0.037 |
